Experimental data: US7256286B2, “Bryostatin analogues, synthetic methods and uses” (The Board of Trustees of the Leland Stanford Junior …, priority 1999, dated 2007)

What was measured:
Type in all cases: cell-based
COLO 205 = assay: NCI human cancer cell line growth inhibition: COLO 205; conditions: COLO 205, Colon
KM12 = assay: NCI human cancer cell line growth inhibition: KM12; conditions: KM12, Colon
OVCAR-8 = assay: NCI human cancer cell line growth inhibition: OVCAR-8; conditions: OVCAR-8, Ovarian
SK-MEL-2 = assay: NCI human cancer cell line growth inhibition: SK-MEL-2; conditions: SK-MEL-2, Melanoma
SN12C = assay: NCI human cancer cell line growth inhibition: SN12C; conditions: Renal
U251 = assay: NCI human cancer cell line growth inhibition: U251; conditions: U251, CNS
786-0 = assay: NCI human cancer cell line growth inhibition: 786-0; conditions: 786-0, Renal
SF-295 = assay: NCI human cancer cell line growth inhibition: SF-295; conditions: SF-295, CNS
MDA-MB-231/ATCC = assay: NCI human cancer cell line growth inhibition: MDA-MB-231/ATCC; conditions: Breast
LOX IMVI = assay: NCI human cancer cell line growth inhibition: LOX IMVI; conditions: Melanoma
HS 578T = assay: NCI human cancer cell line growth inhibition: HS 578T; conditions: Breast
MI4 = assay: NCI human cancer cell line growth inhibition: MI4; conditions: MI4, Melanoma
HCC-2998 = assay: NCI human cancer cell line growth inhibition: HCC-2998; conditions: HCC-2998, Colon
OVCAR-3 = assay: NCI human cancer cell line growth inhibition: OVCAR-3; conditions: OVCAR-3, Ovarian
SF-539 = assay: NCI human cancer cell line growth inhibition: SF-539; conditions: SF-539, CNS
ACHN = assay: NCI human cancer cell line growth inhibition: ACHN; conditions: Renal
CAKI-1 = assay: NCI human cancer cell line growth inhibition: CAKI-1; conditions: CAKI-1, Renal
HCT-15 = assay: NCI human cancer cell line growth inhibition: HCT-15; conditions: Homo sapiens; HCT-15, Colon
MOLT-4 = assay: NCI human cancer cell line growth inhibition: MOLT-4; conditions: MOLT-4, Leukemia
A549/ATCC = assay: NCI human cancer cell line growth inhibition: A549/ATCC; conditions: NSC Lung
SF-268 = assay: NCI human cancer cell line growth inhibition: SF-268; conditions: SF-268, CNS
MDA-MB-435 = assay: NCI human cancer cell line growth inhibition: MDA-MB-435
HOP-62 = assay: NCI human cancer cell line growth inhibition: HOP-62; conditions: Homo sapiens; HOP-62, NSC Lung
OVCAR-5 = assay: NCI human cancer cell line growth inhibition: OVCAR-5; conditions: OVCAR-5, Ovarian
[1] = tested on: NCI human cancer cell-lines; assay: In vitro inhibition of growth in human cancer cell lines (all cell groups); conditions: on average, all cell groups tested
SW-620 = assay: NCI human cancer cell line growth inhibition: SW-620; conditions: SW-620, Colon
T-47D = assay: NCI human cancer cell line growth inhibition: T-47D; conditions: Breast
HCT-116 = assay: NCI human cancer cell line growth inhibition: HCT-116; conditions: HCT-116, Colon
BT-549 = assay: NCI human cancer cell line growth inhibition: BT-549; conditions: BT-549, Breast
OVCAR-4 = assay: NCI human cancer cell line growth inhibition: OVCAR-4; conditions: OVCAR-4, Ovarian

For `CCCCCCCC(=O)O[C@H]1/C(=C/C(=O)OC)C[C@H]2C[C@H](CO)OC(=O)C[C@H](O)C[C@@H]3CCCC(CC4CCO[C@H](/C=C/C(C)(C)[C@]1(O)O2)O4)O3` [Formula IIa (702.1)], which “Difference (GI50 desmethyl vs Bryo-1)” value (COLO 205) is on record?
Its value is −1.68.

And the GI50 (COLO 205; Homo sapiens)?
Its GI50 is 0.0832 µM.

And the GI50 (KM12; Homo sapiens)?
Its GI50 is 4.57 µM.

And the “Difference (GI50 desmethyl vs Bryo-1)” value (KM12)?
Its value is −0.14.

What about the GI50 (OVCAR-8; Homo sapiens) of the same compound?
The GI50 was 17 µM.

What about the “Difference (GI50 desmethyl vs Bryo-1)” value (OVCAR-8) of the same compound?
Its value is 0.33.

And the GI50 (SK-MEL-2; Homo sapiens)?
Its GI50 is 9.55 µM.

And the “Difference (GI50 desmethyl vs Bryo-1)” value (SK-MEL-2)?
The value was 0.18.

What about the GI50 (SN12C; Homo sapiens) of the same compound?
Its GI50 is 2.57 µM.

What about the “Difference (GI50 desmethyl vs Bryo-1)” value (SN12C) of the same compound?
Its value is −0.49.

What about the GI50 (U251; Homo sapiens, U-251) of the same compound?
The GI50 was 3.98 µM.

And the “Difference (GI50 desmethyl vs Bryo-1)” value (U251)?
Its value is −0.30.

And the “Difference (GI50 desmethyl vs Bryo-1)” value (786-0)?
Its value is −0.26.

And the GI50 (786-0; Homo sapiens)?
Its GI50 is 3.47 µM.

What about the GI50 (SF-295; Homo sapiens) of the same compound?
Its GI50 is 0.891 µM.

What about the “Difference (GI50 desmethyl vs Bryo-1)” value (SF-295) of the same compound?
Its value is −0.85.

And the “Difference (GI50 desmethyl vs Bryo-1)” value (MDA-MB-231/ATCC)?
Its value is −0.49.

What about the GI50 (MDA-MB-231/ATCC; Homo sapiens) of the same compound?
Its GI50 is 2.04 µM.

And the GI50 (LOX IMVI; Homo sapiens)?
The GI50 was 3.39 µM.

And the “Difference (GI50 desmethyl vs Bryo-1)” value (LOX IMVI)?
The value was −0.37.

What about the “Difference (GI50 desmethyl vs Bryo-1)” value (HS 578T) of the same compound?
The value was 0.02.

What about the GI50 (HS 578T; Homo sapiens) of the same compound?
The GI50 was 6.61 µM.

What about the GI50 (MI4; Homo sapiens) of the same compound?
The GI50 was 5.5 µM.

What about the “Difference (GI50 desmethyl vs Bryo-1)” value (MI4) of the same compound?
The value was −0.26.

What about the “Difference (GI50 desmethyl vs Bryo-1)” value (HCC-2998) of the same compound?
Its value is −2.24.

And the “more active than bryostatin-1 by” value (HCC-2998)?
Its value is “more than 2 orders of magnitude”.

What about the GI50 (HCC-2998; Homo sapiens) of the same compound?
Its GI50 is 0.0288 µM.

And the GI50 (OVCAR-3; Homo sapiens)?
The GI50 was 14.8 µM.

And the “Difference (GI50 desmethyl vs Bryo-1)” value (OVCAR-3)?
Its value is 0.27.

What about the GI50 (SF-539; Homo sapiens) of the same compound?
The GI50 was 1.7 µM.

What about the “Difference (GI50 desmethyl vs Bryo-1)” value (SF-539) of the same compound?
Its value is −0.77.

What about the GI50 (ACHN; Homo sapiens) of the same compound?
The GI50 was 1.15 µM.

And the “Difference (GI50 desmethyl vs Bryo-1)” value (ACHN)?
Its value is −0.44.

What about the “Difference (GI50 desmethyl vs Bryo-1)” value (CAKI-1) of the same compound?
Its value is −0.30.

What about the GI50 (CAKI-1; Homo sapiens) of the same compound?
Its GI50 is 2 µM.

And the GI50 (HCT-15)?
Its GI50 is 17.4 µM.

What about the GI50 (MOLT-4; Homo sapiens) of the same compound?
Its GI50 is < 0.01 µM.

What about the “Difference (GI50 desmethyl vs Bryo-1)” value (MOLT-4) of the same compound?
The value was −2.50.

And the “more active than bryostatin-1 by” value (MOLT-4)?
The value was “more than 2 orders of magnitude”.

And the GI50 (A549/ATCC; Homo sapiens)?
Its GI50 is 0.24 µM.

What about the “Difference (GI50 desmethyl vs Bryo-1)” value (A549/ATCC) of the same compound?
Its value is −1.42.

And the GI50 (SF-268; Homo sapiens)?
The GI50 was 10.7 µM.

And the “Difference (GI50 desmethyl vs Bryo-1)” value (SF-268)?
Its value is 0.13.

And the GI50 (MDA-MB-435; Homo sapiens, MDA-MB-435, Breast)?
Its GI50 is 0.0219 µM.

And the “more active than bryostatin-1 by” value (MDA-MB-435; MDA-MB435 (breast))?
The value was “more than 2 orders of magnitude”.

And the “Difference (GI50 desmethyl vs Bryo-1)” value (MDA-MB-435; MDA-MB-435, Breast)?
The value was −2.56.

And the GI50 (HOP-62)?
The GI50 was 16.2 µM.

What about the GI50 (OVCAR-5; Homo sapiens) of the same compound?
The GI50 was 5.25 µM.

And the “Difference (GI50 desmethyl vs Bryo-1)” value (OVCAR-5)?
Its value is −0.28.

What about the “potency compared with bryostatin-1” value [1] of the same compound?
The value was “at least as potent, on average, as bryostatin-1”.

What about the GI50 (SW-620; Homo sapiens) of the same compound?
The GI50 was 7.59 µM.

What about the “Difference (GI50 desmethyl vs Bryo-1)” value (SW-620) of the same compound?
Its value is 0.38.

What about the “Difference (GI50 desmethyl vs Bryo-1)” value (T-47D) of the same compound?
Its value is 0.18.

And the GI50 (T-47D; Homo sapiens, T47D)?
Its GI50 is 9.55 µM.

What about the “Difference (GI50 desmethyl vs Bryo-1)” value (HCT-116) of the same compound?
Its value is −0.02.

And the GI50 (HCT-116; Homo sapiens)?
Its GI50 is 4.79 µM.

And the “Difference (GI50 desmethyl vs Bryo-1)” value (BT-549)?
The value was 0.39.

And the GI50 (BT-549; Homo sapiens)?
The GI50 was 19.5 µM.

What about the GI50 (OVCAR-4; Homo sapiens) of the same compound?
The GI50 was 7.08 µM.

What about the “Difference (GI50 desmethyl vs Bryo-1)” value (OVCAR-4) of the same compound?
Its value is 0.35.
